In patent US20250228865A1, “COMPOUNDS FOR ENHANCING READ THROUGH OF GENES CONTAINING PREMATURE TERMINATION CODONS AND METHODS FOR MAKING AND USING THE SAME” (Sanofi US Services Inc., priority 2022, published 2025):

Legend:
[1] = tested on: recombinant human CFTR carrying the premature stop codon (PTC) mutation G542X; assay: CFTR-PTC mutant translation readthrough, Nanoluc tagged CFTR luminescence (G542X cell line); assay type: cell-based; details: in combination with G418, G542X cell line; for CFTR G542X ACTIVITY Fold 10 μM G-418: fold over 10 μM G-418; for EC50: 16HBE cells
Procedure, shortened: (§1)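 16HBE cells stably expressing Nanoluc-tagged human CFTR with G542X or R1162X, in medium with 3 μM VX-809, treated 48 h at 37 °C with compound (10-point, 2-fold, top 50 μM final) alone or with 10 μM G418. Live-cell Nanoluc luminescence normalised to a maximally effective G418 (125-250 μM).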

[2] = tested on: recombinant human CFTR carrying the premature stop codon (PTC) mutation R1162X; assay: CFTR-PTC mutant translation readthrough, Nanoluc tagged CFTR luminescence (R1162X cell line); assay type: cell-based; details: for CFTR R1162X ACTIVITY Fold 10 μM G-418: fold over 10 μM G-418, in combination with G418; for EC50: in combination with G418, 16HBE cells, read-out: CFTR R1162X ACTIVITY EC50
Procedure, shortened: as §1

| SMILES | CFTR G542X ACTIVITY Fold 10 μM G-418 [1] | EC50 [1] | CFTR R1162X ACTIVITY Fold 10 μM G-418 [2] | EC50 [2] |
| --- | --- | --- | --- | --- |
| Cc1cccc(C(F)(F)F)c1COc1ccc(-n2cnc(CO)n2)nc1 | A′ (A′ = ≥10X) | < 1 µM | A′ (A′ = ≥10X) | < 1 µM |
| Cc1cccc(C(F)(F)F)c1COc1cnc(N2CCC(O)(c3cccnc3)CC2)nc1 | A′ (A′ = ≥10X) | < 1 µM | A′ (A′ = ≥10X) | < 1 µM |
| OCc1cn(-c2ncc(OCc3c(Cl)cccc3OC(F)F)cn2)cn1 | A′ (A′ = ≥10X) | 1 to 10 µM | B′ (B′ = ≥5X to <10X) | 1 to 10 µM |
| Clc1cccc(Cl)c1COc1cnc(N2CC3(CCCOC3)C2)nc1 [2-[5-[(2,6-dichlorophenyl)methoxy]pyrimidin-2-yl]-6-oxa-2-azaspiro[3.5]nonane] | A′ (A′ = ≥10X) | < 1 µM | A′ (A′ = ≥10X) | 1 to 10 µM |
| Cc1cccc(C(F)(F)F)c1COc1cnc(N2CCN(C(N)=O)C(CO)C2)nc1 (stereo not shown) | A′ (A′ = ≥10X) | < 1 µM | A′ (A′ = ≥10X) | < 1 µM |
| C[C@H]1CO[C@@H](CO)CN1c1ncc(OCc2c(Cl)cccc2Cl)cn1 (racemic) | A′ (A′ = ≥10X) | < 1 µM | A′ (A′ = ≥10X) | < 1 µM |
| O=C1Cc2cc(NCc3c(Cl)cccc3Cl)ccc2C(=O)N1 [Compound 303, 6-[(2,6-dichlorophenyl)methylamino]-4H-isoquinoline-1,3-dione] |  | > 10 µM |  | > 10 µM |
| O=C(O)c1ncn(-c2ccc(OCc3c(Cl)cccc3C(F)(F)F)cn2)n1 [1-(5-{[2-chloro-6-(trifluoromethyl)phenyl]methoxy]pyridin-2-] | C′ (C′ = <5X) | 1 to 10 µM |  | > 10 µM |
| CN1C(=O)CN(c2ncc(OCc3c(Cl)cccc3C(F)(F)F)cn2)CC1CO (stereo not shown) | C′ (C′ = <5X) | < 1 µM | C′ (C′ = <5X) | 1 to 10 µM |
| Cc1cccc(C(F)(F)F)c1COc1cnc(N2CC[C@H](C(N)=O)C2)nc1 | A′ (A′ = ≥10X) | 1 to 10 µM | A′ (A′ = ≥10X) | 1 to 10 µM |
| Cc1cccc(C(F)(F)F)c1COc1cnc(NC(=O)N(C)C)nc1 | A′ (A′ = ≥10X) | 1 to 10 µM | C′ (C′ = <5X) | 1 to 10 µM |
| O=C1CN(c2ncc(OCc3c(Cl)cccc3Cl)cn2)C(=O)N1 [Example 323, 1-{5-[(2,6-dichlorophenyl)methoxy]pyrimidin-2-yl}imidazolidine-2,4-dione] | C′ (C′ = <5X) | 1 to 10 µM | C′ (C′ = <5X) | 1 to 10 µM |
| Cc1cccc(C(F)(F)F)c1COc1cnc(N2CCC(O)(CCO)CC2)nc1 | A′ (A′ = ≥10X) | < 1 µM | A′ (A′ = ≥10X) | < 1 µM |
| Clc1cccc(Cl)c1COc1ccc(-n2ccnc2)cc1 [1-[4-[(2,6-dichlorophenyl)methoxy]phenyl]imidazole] | B′ (B′ = ≥5X to <10X) | 1 to 10 µM | A′ (A′ = ≥10X) | > 10 µM |
| O=C1NC2(CCCC2)C(=O)N1c1ccc(OCc2c(Cl)cccc2C(F)(F)F)cc1 | A′ (A′ = ≥10X) | < 1 µM | B′ (B′ = ≥5X to <10X) | 1 to 10 µM |
| COC(=O)C1CN(c2ncc(OCc3c(Cl)cccc3Cl)cn2)CC(=O)N1 (stereo not shown) | A′ (A′ = ≥10X) | > 10 µM | B′ (B′ = ≥5X to <10X) | > 10 µM |
| OCc1cc(-c2ncc(OCc3c(Cl)cccc3C(F)(F)F)cn2)[nH]n1 | A′ (A′ = ≥10X) | < 1 µM | A′ (A′ = ≥10X) | 1 to 10 µM |
| NC(=O)C1CN(c2ncc(OCc3c(Cl)cccc3C(F)(F)F)cn2)CCO1 (stereo not shown) | A′ (A′ = ≥10X) | 1 to 10 µM | A′ (A′ = ≥10X) | 1 to 10 µM |
| NC(=O)c1ccn(-c2ncc(OCc3c(Cl)cccc3Cl)cn2)n1 [1-[5-[(2,6-dichlorophenyl)methoxy]pyrimidin-2-yl]pyrazole-3-carboxamide] | A′ (A′ = ≥10X) | < 1 µM | B′ (B′ = ≥5X to <10X) | < 1 µM |

| SMILES | CFTR G542X ACTIVITY Fold 10 μM G-418 [1] | EC50 [1] | CFTR R1162X ACTIVITY Fold 10 μM G-418 [2] | EC50 [2] |
| --- | --- | --- | --- | --- |
| Cc1cccc(C(F)(F)F)c1COc1cnc(-n2ncc(-c3ccccn3)n2)nc1 | A′ (A′ = ≥10X) | < 1 µM | A′ (A′ = ≥10X) | < 1 µM |
| OCC1CN(c2ncc(OCc3c(Cl)cccc3C3CC3)cn2)CCO1 (stereo not shown) | A′ (A′ = ≥10X) | < 1 µM | A′ (A′ = ≥10X) | < 1 µM |
| OCc1cc(-c2ncc(OCc3c(Cl)cccc3Cl)cn2)no1 [[3-[5-[(2,6-dichlorophenyl)methoxy]pyrimidin-2-yl]isoxazol-5-yl]methanol] | A′ (A′ = ≥10X) | < 1 µM | A′ (A′ = ≥10X) | 1 to 10 µM |
| Cn1cc(-c2ccc(OCc3c(Cl)cccc3Cl)cn2)nn1 [5-[(2,6-dichlorophenyl)methoxy]-2-(1-methyltriazol-4-yl)pyridine] | A′ (A′ = ≥10X) | 1 to 10 µM | A′ (A′ = ≥10X) | 1 to 10 µM |
| O=C1O[C@H](CO)CN1c1ccc(OCc2c(Cl)cccc2Cl)cc1 [(5S)-3-[4-[(2,6-dichlorophenyl)methoxy]phenyl]-5-(hydroxymethyl)oxazolidin-2-one] | B′ (B′ = ≥5X to <10X) | 1 to 10 µM | B′ (B′ = ≥5X to <10X) | 1 to 10 µM |
| O=C1N[C@@H](CO)CN1c1ccc(OCc2c(Cl)cccc2Cl)cn1 | A′ (A′ = ≥10X) | 1 to 10 µM | A′ (A′ = ≥10X) | 1 to 10 µM |
| NC(=O)NCC1CN(c2ncc(OCc3c(Cl)cccc3Cl)cn2)CCO1 (stereo not shown) [[4-[5-[(2,6-dichlorophenyl)methoxy]pyrimidin-2-yl]morpholin-2-yl]methylurea] | A′ (A′ = ≥10X) | 1 to 10 µM | B′ (B′ = ≥5X to <10X) | 1 to 10 µM |
| Cc1cccc(C(F)(F)F)c1COc1cnc(N2C(=O)CN(Cc3ccccc3)C2=O)nc1 | A′ (A′ = ≥10X) | < 1 µM | A′ (A′ = ≥10X) | < 1 µM |
| NCc1cc(-c2ccc(OCc3c(Cl)cccc3Cl)cn2)no1 [Example 234, [3-[5-[(2,6-dichlorophenyl)methoxy]-2-pyridyl]isoxazol-5-yl]methanamine] | A′ (A′ = ≥10X) | < 1 µM | A′ (A′ = ≥10X) | 1 to 10 µM |
| O=C1O[C@@H](CO)CN1c1ccc(OCc2c(Cl)cccc2Cl)cc1 [(5R)-3-[4-[(2,6-dichlorophenyl)methoxy]phenyl]-5-(hydroxymethyl)oxazolidin-2-one] | A′ (A′ = ≥10X) | 1 to 10 µM | A′ (A′ = ≥10X) | 1 to 10 µM |
| OC[C@@H]1CN(c2ncc(OCc3c(Cl)cccc3C(F)(F)F)cn2)CCO1 | A′ (A′ = ≥10X) | < 1 µM | A′ (A′ = ≥10X) | < 1 µM |
| Cc1cccc(C(F)(F)F)c1COc1cnc(N2CC[S+]([O-])CC2)nc1 | A′ (A′ = ≥10X) | 1 to 10 µM | A′ (A′ = ≥10X) | 1 to 10 µM |
| Cc1cccc(C(F)(F)F)c1COc1cnc(N2C(=O)NC(C)(C)C2=O)nc1 | A′ (A′ = ≥10X) | 1 to 10 µM | A′ (A′ = ≥10X) | 1 to 10 µM |
| O=C1CCC(=O)N1c1ccc(OCc2c(Cl)cccc2Cl)cc1 [1-[4-[(2,6-dichlorophenyl)methoxy]phenyl]pyrrolidine-2,5-dione] | A′ (A′ = ≥10X) | 1 to 10 µM | B′ (B′ = ≥5X to <10X) | 1 to 10 µM |
| OC[C@@H]1CN(c2ncc(OCc3c(Cl)cccc3Cl)cn2)C[C@@H](C(F)(F)F)O1 (racemic) | A′ (A′ = ≥10X) | < 1 µM | B′ (B′ = ≥5X to <10X) | 1 to 10 µM |
| OCc1n[nH]c(-c2ccc(OCc3c(Cl)cccc3Cl)cn2)n1 [[5-[5-[(2,6-dichlorophenyl)methoxy]-2-pyridyl]-1H-1,2,4-triazol-3-yl]methanol] | B′ (B′ = ≥5X to <10X) | 1 to 10 µM | B′ (B′ = ≥5X to <10X) | 1 to 10 µM |
| OCc1cn(-c2ncc(OCc3c(Cl)cccc3C(F)(F)F)cn2)nn1 | A′ (A′ = ≥10X) | 1 to 10 µM | A′ (A′ = ≥10X) | 1 to 10 µM |
| Clc1cccc(Cl)c1COc1cnc(-n2cc(-c3ccccn3)nn2)nc1 [5-[(2,6-dichlorophenyl)methoxy]-2-[4-(2-pyridyl)triazol-1-yl]pyrimidine] | A′ (A′ = ≥10X) | < 1 µM | A′ (A′ = ≥10X) | < 1 µM |
